Measurements: US20240252677A1, “ONE-COMPONENT DELIVERY SYSTEM FOR NUCLEIC ACIDS” (The Trustees of the University of Pennsylvania, priority 2021, published 2024)

Legend:
[1] = DLS size of dendrimersomes assembled from glycerol-JDs in water at different concentrations; format: physicochemical; conditions: for Dh (nm): size distribution by intensity
Experimental: Assembly of all eight glycerol-JDs was performed by injection of their ethanol solution (50 μL) into 1 mL of Milli-Q water. The size distribution and structure of resulting DSs were analyzed by DLS (FIG. 84) and cryo-TEM. […] In a certain concentration range the size of DSs increased with the concentration of JDs injected in water or buffer. […] The dimensions of the assemblies were identical when the concentrations of the JDs in water were identical. Sizes of assemblies from mixtures of 1R and 1S in different ratios (1:3, 1:1 and 3:1), were also identical (FIG. 84). […] With the exception of the rotation of polarized light, the physical properties of enantiomers and their racemic mixtures must be identical.
Dynamic light scattering (DLS). Hydrodynamic diameters (Dh) of the self-assemblies of dendrimer molecules and their size distributions were measured on a Malvern Instruments particle sizer (Zetasizer® Nano S, Malvern Instruments, UK) equipped with 4 mW He—Ne laser (633 nm) and avalanche photodiode positioned at […] to the beam and temperature controlled cuvette holder. Experiments were performed at 25° C. in triplicate. The distribution of radius was intensity.

[2] = Cryo-TEM of dendrimersomes from glycerol-JDs, number of vesicle layers; format: physicochemical
From the text: The red numbers in FIG. 85 stand for the unilamellar while yellow numbers for multilamellar DSs. The calculated percentages of unilamellar DSs in the selected images for 2R, 2S and 2rac are 91%, 70% and 13%, respectively. Same trend was found for cryo-TEM of 1R, 1S and 1rac (FIG. 86 through FIG. 88). […] Achiral DSs are all unilamellar.
Cryogenic Transmission Electron Microscopy (Cryo-TEM). Morphologies of the Janus Dendrimer assemblies were characterized by cryo-TEM. Images were acquired on a Carl Zeiss Libra 120 microscope. Samples were prepared by plunge freezing of aqueous dispersion on plasma-treated lacey grids. The vitrified specimens were then transferred to a Gatan-910 cryoholder. The 5 images were recorded at −170° C. with an acceleration voltage of 120 kV. The concentration of JD in the aqueous solution of DSs was 1 mg mL-^1.

HEK293T cells = assay: In vitro Luc-mRNA transfection, luciferase luminescence expression in HEK293T cells; format: cell-based, human; set-up: unit not given here; conditions: CIAJD 4 mg/mL, HEK293T, 125 ng/well
Experimental: In Vitro Transfection Activity of DNPs in Human Embrionic Kidney (HEK) 293T Cells: HEK293T cells were seeded into 96-well plates (20,000 cells/well/200 μL) and cultured for 24 h at 37° C. in 5% CO2 complete cell culture media. Screening experiments were performed with nonoptimized DNPs containing naked nucleoside-modified mRNA (Karikó, et al., Immunity 2005, 23, 165-175; Pardi, et al., Methods Mol. Biol. 2013, 969, 29-42), of molar mass 664,341 encoding firefly luciferase (mRNA-Luc). A constant concentration of mRNA-Luc of 125 ng/well was used. The transIT (TransIT-mRNA transfection Kit from Mirus Bio) and MC3-based LNPs (MC3: DLin-MC3-DMA, which is the FDA approved LNP for mRNA delivery) were used as positive controls for cell transfection at a concentration of mRNA-Luc of 125 ng/well, identical to that of the tested DNPs. Subsequently cells were cultured for 24 h, the medium was aspirated under reduced pressure by a glass pipette and cells were lysed with 30 μL/well of cell culture lysis reagent (Promega). The luminescence intensity corresponding to the luciferase protein expressed was characterized and analyzed.
In vitro mRNA Delivery: Human embryonic kidney (HEK) 293T cells (American Type Culture Collection) were cultured in Dulbecco's modified Eagle's medium (DMEM) supplemented with 10% inactivated fetal bovine serum (FBS) (Gemini Bio-Products), 2 mM L-glutamine and 100 U/mL penicillin/streptomycin (Life Technologies) (complete medium). For in vitro screening experiments, HEK293T cells were seeded into 96-well plates (20,000 cells/well/200 μL) and cultured for 24 h in at 37° C. and 5% CO2 in complete media. Cell were transfected with IAJDs with encapsulated naked nucleoside-modified mRNA encoding firefly luciferase (mRNA-Luc) with fixed concentration of mRNA-Luc, 125 ng per well. The transIT (TransIT®-mRNA Transfection Kit, Mirus Bio) was used as a positive control for cell transfection, accordingly per manufacturer protocol and added to cells at the concentration of mRNA-Luc, 125 ng per well, the same as for tested particles. Cells were further cultured for 24 h, then medium was aspirated, and cells were lysed with 30 μL/well of cell culture lysis reagent (Promega). For the characterization of luminescence intensity, 2.5 μL of the lysed cells was mixed with 10 μL of luciferase assay substrate and luminescence was analyzed using a MiniLumat LB 9506 luminometer (Berthold/EG&G; Wallac).
Luminescence characterization for in vitro transfection experiments was performed by determining the luminescence intensity for in vitro Luc-mRNA transfection experiments using a MiniLumat LB 9506 luminometer (Berthold/EG&G; Wallac).
For in vitro Luc-mRNA transfection screening experiments, human embryonic kidney 293 cells (HEK 293) were seeded into 96-well plates (20,000 cells/well/200 μL) and cultured for 18-20 hours at 37° C., 5% CO2 in complete Dulbecco's modified Eagle's medium (DMEM) supplemented with 2 mM L-glutamine (Life Technologies), 100 U/mL penicillin/streptomycin (Invitrogen) and 10% fetal bovine serum (FBS, Gemini Bio-Products). Cells were transfected with DNPs with encapsulated naked nucleoside-modified mRNA encoding firefly luciferase (Luc-mRNA) at constant concentration of Luc-mRNA, 125 ng per well. Luc-mRNA complexed with TransIT (TransIT®-mRNA Transfection Kit, Mirus Bio) or encapsulated in FDA approved MC3-based LNPs were used as positive controls for cell transfection, at the concentration of Luc-mRNA of 125 ng per well, the same as for tested DNPs. After transfection cells were further cultured at 37° C., 5% CO2 for 18-20 hours, then medium was aspirated and cells were lysed with luciferase cell culture lysis reagent (30 μL/well) (Promega, Madison, WI). […]

[3] = Dimensions (size, PDI) of DNPs co-assembled from IAJDs and Luc-mRNA by DLS; format: physicochemical; conditions: CIAJD 4 mg/mL
Experimental: Dynamic Light Scattering (DLS) for the DNPs was performed in buffer with a Malvern Instruments particle sizer (Zetasizer Nano S, Malvern Instruments, UK) equipped with 4 mW He—Ne laser 633 nm and avalanche photodiode positioned at […] to the beam and temperature-controlled cuvette holder. Instrument parameters were determined automatically along with measurement times.
Formulation of DNPs Containing mRNA-Luc: IAJDs were dissolved in ethanol with various initial concentrations (5-160 mg/mL). Nucleoside-modified mRNA encoding firefly luciferase (mRNA-Luc) was dissolved in water with various initial concentrations (1-4 mg/mL). 12.5 μL of mRNA solution was placed into a clean RNAs free eppendorf (1.5 mL) and mixed with 463 μL of citrate buffer (10 mM, pH 3.0)/acetate buffer (10 mM). For encapsulation of mRNA into IAJDs, 25 μL of IAJDs of the ethanol stock solution was rapidly injected into mRNA solution in citrate or acetate buffer followed by vortex for 5 seconds.
(§1) Dynamic Light Scattering (DLS) for the sizes and polydispersities of DNPs was performed on a Malvern Instruments particle sizer (Zetasizer Nano S, Malvern Instruments, UK) equipped with 4 mW He—Ne laser 633 nm and avalanche photodiode positioned at 1750 to the beam and temperature-controlled cuvette holder. Instrument parameters were determined automatically along with measurement times. Sample solution (0.4 mL) was placed in a semi-micro cuvette (1.6 mL, polystyrene, 10×10×45 mm, manufactured by Greiner Bio-One) and the measurements were performed at 23° C.
Formulation of DNPs obtained by co-assembly of IAJDs and Luc-mRNA was performed as follows. IAJDs were dissolved in ethanol with an initial concentration of 80 mg/mL. Nucleoside-modified mRNA encoding firefly luciferase (Luc-mRNA) was dissolved in UltraPure DNase/RNase-free distilled water with an initial concentration of 4.0 mg/mL. 12.5 μL of Luc-mRNA solution was placed into a clean RNAs free eppendorf (1.5 mL) and 463 μL acetate buffer (10 mM, pH 4.0) was added. Then, 25 μL of IAJD in the ethanol stock solution was rapidly injected into the Luc-mRNA solution in acetate buffer followed by vortex for 5 seconds.
as §1, with “dimensions (sizes” for “sizes”, “polydispersities)” for “polydispersities”, “175°” for “1750”, “set up” for “determined”, “(c.a. 0.4” for “(0.4”, “mm,” for “mm, manufactured by”
Formulation of DNPs Co-assembled from IAJDs and Luc-mRNA: nucleoside-modified mRNA encoding firefly luciferase (Luc-mRNA) was dissolved in UltraPure DNase/RNase-free distilled water with an initial concentration of 4.0 mg/mL. IAJD molecules were dissolved in ethanol with an initial concentration of 80 mg/mL. 12.5 μL of Luc-mRNA solution was taken and placed into a clean RNAs free eppendorf (1.5 mL). Then 463 μL of acetate buffer (10 mM, pH 4.0) was added. Afterwards, 25 μL of IAJD in the ethanol stock solution was taken and rapidly injected into the above Luc-mRNA solution in acetate buffer followed by vortex for 5 seconds.

[4] = Acetate buffer 10 mM pH 4.0, CLuc-mRNA 0.05 mg/mL
[5] = Acetate buffer 10 mM pH 5.2, CLuc-mRNA 0.10 mg/mL
[6] = Citrate buffer 10 mM pH 3.0, CLuc-mRNA 0.05 mg/mL

## CCCCCCCCCCCCOc1cc(OCCCCCCCCCCCC)cc(C(=O)OCC(COC(=O)C(C)(COC(=O)c2cc(OCCOCCOCCOC)c(OCCOCCOCCOC)c(OCCOCCOCCOC)c2)COC(=O)c2cc(OCCOCCOCCOC)c(OCCOCCOCCOC)c(OCCOCCOCCOC)c2)OC(=O)c2cc(OCCCCCCCCCCCC)cc(OCCCCCCCCCCCC)c2)c1 (racemic) [Compound 1rac, (3,5)-12G1-GC-(rac)-BMPA-(3,4,5)-3EO-G1]
[1]; JD 0.025 mg·mL−1 in water
  PDI: 0.398
  Dh (nm): 86 nm
[1]; JD 0.05 mg·mL−1 in water
  PDI: 0.277
  Dh (nm): 109 nm
[1]; JD 0.1 mg·mL−1 in water
  PDI: 0.268
  Dh (nm): 123 nm
[1]; JD 0.15 mg·mL−1 in water
  PDI: 0.232
  Dh (nm): 128 nm
[1]; JD 0.2 mg·mL−1 in water
  PDI: 0.216
  Dh (nm): 136 nm
[1]; JD 0.25 mg·mL−1 in water
  PDI: 0.238
  Dh (nm): 142 nm
[1]; JD 0.3 mg·mL−1 in water
  PDI: 0.203
  Dh (nm): 153 nm
[1]; JD 0.4 mg·mL−1 in water
  PDI: 0.275
  Dh (nm): 174 nm
[1]; JD 0.5 mg·mL−1 in water
  PDI: 0.240
  Dh (nm): 281 nm
[2]; vesicles with 1 layer
  Number of vesicle layers: 1 (count of vesicles): 7
[2]; vesicles with 2 layers
  Number of vesicle layers: 2 (count of vesicles): 6
[2]; vesicles with 3 layers
  Number of vesicle layers: 3 (count of vesicles): 2
[2]; vesicles with 4 layers
  Number of vesicle layers: 4 (count of vesicles): 1
[2]; vesicles with 5 layers
  Number of vesicle layers: 5 (count of vesicles): 1
[2]; vesicles with 6 layers
  Number of vesicle layers: 6 (count of vesicles): 3

## (3,5)-12G2-BMPA-GC-(achiral)-(3,4,5)-3EO-G1 [Compound 4]
HEK293T cells; [4]
  Luminescence: 3,283
HEK293T cells; [5]
  Luminescence: 1,613
HEK293T cells; [6]
  Luminescence: 2,063
[3]; [4]
  PDI: 0.330
  Size (d, nm): 58 nm
[3]; [5]
  PDI: 0.284
  Size (d, nm): 178 nm
[3]; [6]
  PDI: 0.460
  Size (d, nm): 61 nm
